Measurements taken from paper PMC9032825, “Docking, Binding Free Energy Calculations and In Vitro Characterization of Pyrazine Linked 2-Aminobenzamides as Novel Class I Histone Deacetylase (HDAC) Inhibitors” (Molecules, 2022).
Where two headings read alike, the source gives them in different places.

Key:
[1] = target: T1, human HDAC1 (Homo sapiens, UniProt Q13547); settings: training set, from in vitro IC50; cited from earlier work
[2] = target: T2, human HDAC2 (Homo sapiens, UniProt Q92769); settings: training set, from in vitro IC50; cited from earlier work
[3] = target: T3, human HDAC3 (Homo sapiens, UniProt O15379); settings: training set, from in vitro IC50; cited from earlier work
[4] = target: T1, human HDAC1; assay: HDAC1 inhibition, fluorogenic peptide substrate Ac-RHKK(Acetyl)-AMC; assay type: biochemical; settings: test set
Method: (§1) HDAC1, 2, 3 inhibitory activity for the novel inhibitors was performed as previously reported. To keep the test number small, we applied a two-step screening.
(§2) A fluorogenic peptide derived from p53 (Ac-RHKK(Acetyl)-AMC) was used as substrate. The measurements were performed in an assay buffer (50 mM Hepes, 150 mM NaCl, 5 mM MgCl2, 1 mM TCEP and 0.2 mg/mL BSA, pH 7.4 adjusted with NaOH) at 37 °C. Inhibitors at different concentrations were incubated with 10 nM HDAC1, 3 nM HDAC2 or 3 nM HDAC3 (final concentration) for at least 5 min. The reaction was started with the addition of the fluorogenic substrate (20 µM final concentration) and incubated for 30 min for HDAC2 and HDAC3 and 90 min for HDAC1. The reaction was stopped with a solution of 1 mg/mL trypsin in 1 mM HCl and incubated for 1 h at 37 °C. The fluorescence intensity was recorded with an Envision 2104 Multilabel Plate Reader (PerkinElmer, Waltham, MA) with an excitation wavelength of 380 ± 8 nm and an emission wavelength of 430 ± 8 nm. The received fluorescence intensities were normalized with uninhibited reaction as 100% and the reaction without enzyme as 0%. A nonlinear regression analysis was done to determine the IC50 value.

[5] = target: T2, human HDAC2; assay: HDAC2 inhibition, fluorogenic peptide substrate Ac-RHKK(Acetyl)-AMC; assay type: biochemical; settings: test set
Method: as §1, §2

[6] = target: T3, human HDAC3; assay: HDAC3 inhibition, fluorogenic peptide substrate Ac-RHKK(Acetyl)-AMC; assay type: biochemical; settings: test set
Method: as §1, §2

T2 sequence (Q92769 whole entry): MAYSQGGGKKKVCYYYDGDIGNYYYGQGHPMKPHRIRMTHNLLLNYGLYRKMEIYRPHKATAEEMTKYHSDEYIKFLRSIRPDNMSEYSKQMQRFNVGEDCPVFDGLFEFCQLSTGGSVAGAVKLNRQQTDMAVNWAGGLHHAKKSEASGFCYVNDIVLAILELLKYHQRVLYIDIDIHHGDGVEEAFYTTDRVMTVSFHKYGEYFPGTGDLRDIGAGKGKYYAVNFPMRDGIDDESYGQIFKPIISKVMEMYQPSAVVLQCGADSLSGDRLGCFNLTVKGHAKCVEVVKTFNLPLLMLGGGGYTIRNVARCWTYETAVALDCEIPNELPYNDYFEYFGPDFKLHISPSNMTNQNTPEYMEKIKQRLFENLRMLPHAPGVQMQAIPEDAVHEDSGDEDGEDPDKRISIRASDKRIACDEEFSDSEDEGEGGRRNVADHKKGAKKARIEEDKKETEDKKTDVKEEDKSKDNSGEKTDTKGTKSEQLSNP
T3 sequence (O15379 whole entry): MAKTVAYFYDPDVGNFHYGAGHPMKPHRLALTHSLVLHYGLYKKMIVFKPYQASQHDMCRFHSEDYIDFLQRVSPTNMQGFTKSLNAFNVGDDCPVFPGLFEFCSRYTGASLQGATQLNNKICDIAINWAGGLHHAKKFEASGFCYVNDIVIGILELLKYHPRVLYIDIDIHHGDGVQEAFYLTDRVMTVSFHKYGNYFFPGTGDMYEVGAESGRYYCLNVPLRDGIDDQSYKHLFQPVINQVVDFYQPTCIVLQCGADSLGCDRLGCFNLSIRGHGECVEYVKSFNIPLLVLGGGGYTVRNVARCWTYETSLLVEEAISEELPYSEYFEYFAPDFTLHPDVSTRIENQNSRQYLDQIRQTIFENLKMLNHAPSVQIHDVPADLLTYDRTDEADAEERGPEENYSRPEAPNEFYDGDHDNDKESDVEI
T3 sequence (O75376 395-489 partner limits assumed): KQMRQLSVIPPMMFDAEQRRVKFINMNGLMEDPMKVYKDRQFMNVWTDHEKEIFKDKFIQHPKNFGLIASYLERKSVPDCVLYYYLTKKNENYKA
T1 sequence (Q13547 whole entry): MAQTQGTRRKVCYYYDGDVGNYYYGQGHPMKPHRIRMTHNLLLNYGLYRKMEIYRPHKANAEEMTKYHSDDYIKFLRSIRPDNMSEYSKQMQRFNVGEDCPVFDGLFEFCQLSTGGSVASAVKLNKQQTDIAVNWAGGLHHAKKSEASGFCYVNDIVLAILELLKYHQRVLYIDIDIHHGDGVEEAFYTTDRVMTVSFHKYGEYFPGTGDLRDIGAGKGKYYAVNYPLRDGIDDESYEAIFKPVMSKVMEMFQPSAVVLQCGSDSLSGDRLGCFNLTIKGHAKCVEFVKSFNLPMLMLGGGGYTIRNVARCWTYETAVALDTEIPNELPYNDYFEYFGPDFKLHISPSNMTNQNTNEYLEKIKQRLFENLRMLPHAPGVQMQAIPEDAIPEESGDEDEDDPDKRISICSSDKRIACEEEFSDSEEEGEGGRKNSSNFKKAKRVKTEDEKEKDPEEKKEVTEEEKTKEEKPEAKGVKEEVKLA

SMILES: Nc1ccccc1NC(=O)c1cnc(N2CCN(CCc3ccccc3)CC2)cn1 [19a]
- HDAC1-pIC50 [1]: 6.29
- HDAC2-pIC50 [2]: 6.10
- HDAC3-pIC50 [3]: 5.95

SMILES: Nc1ccccc1NC(=O)c1cnc(N2CCN(Cc3ccccn3)CC2)cn1 [19d]
- HDAC1-pIC50 [1]: 6.28
- HDAC2-pIC50 [2]: 5.84
- HDAC3-pIC50 [3]: 5.97

SMILES: Nc1ccccc1NC(=O)c1cnc(N2CCN(Cc3csc4ccccc34)CC2)cn1 [19e]
- HDAC1-pIC50 [1]: 6.68
- HDAC2-pIC50 [2]: 6.15
- HDAC3-pIC50 [3]: 6.08

SMILES: Nc1ccccc1NC(=O)c1cnc(N2CCN(CCc3c[nH]c4ccccc34)CC2)cn1 [19g]
- HDAC1-pIC50 [1]: 6.51
- HDAC2-pIC50 [2]: 6.02
- HDAC3-pIC50 [3]: 6.31

SMILES: Nc1cc(F)c(F)cc1NC(=O)c1cnc(N2CCN(CCc3c[nH]c4ccccc34)CC2)cn1 [19h]
- HDAC1-pIC50 [1]: 6.09
- HDAC2-pIC50 [2]: 6.13
- HDAC3-pIC50 [3]: 6.24

SMILES: Nc1cc(Cl)ccc1NC(=O)c1cnc(N2CCN(CCc3c[nH]c4ccccc34)CC2)cn1 [19i]
- HDAC1-pIC50 [1]: 5.52
- HDAC2-pIC50 [2]: 5.57
- HDAC3-pIC50 [3]: 5.72

SMILES: Cn1cc(CN2CCN(c3ncc(C(=O)Nc4ccccc4N)cn3)CC2)c2ccccc21 [19j]
- HDAC1-pIC50 [1]: 6.35
- HDAC2-pIC50 [2]: 6.03
- HDAC3-pIC50 [3]: 5.76

SMILES: Cn1cc(CN2CCN(c3cnc(C(=O)Nc4ccccc4N)cn3)CC2)c2ccccc21 [19k]
- HDAC1-pIC50 [1]: 6.85
- HDAC2-pIC50 [2]: 6.25
- HDAC3-pIC50 [3]: 6.23

SMILES: Cn1cc(CN2CCN(c3cnc(C(=O)Nc4cc(F)c(F)cc4N)cn3)CC2)c2ccccc21 [19l]
- HDAC1-pIC50 [1]: 6.54
- HDAC2-pIC50 [2]: 6.25
- HDAC3-pIC50 [3]: 6.09

SMILES: Cn1cc(CCN2CCN(c3cnc(C(=O)Nc4ccc(F)cc4N)cn3)CC2)c2ccccc21 [19m]
- HDAC1-pIC50 [1]: 6.40
- HDAC2-pIC50 [2]: 5.83
- HDAC3-pIC50 [3]: 6.40

SMILES: Cn1cc(CCN2CCN(c3cnc(C(=O)Nc4cc(-c5cccs5)ccc4N)cn3)CC2)c2ccccc21 [21a]
- HDAC1-pIC50 [1]: 6.59
- HDAC2-pIC50 [2]: 5.61

SMILES: Nc1ccc(-c2ccc(F)cc2)cc1NC(=O)c1cnc(N2CCN(CCc3c[nH]c4ccccc34)CC2)cn1 [21b]
- HDAC1-pIC50 [1]: 6.15
- HDAC2-pIC50 [2]: 6.11

SMILES: Nc1ccc(-c2ccccc2F)cc1NC(=O)c1cnc(N2CCN(CCc3c[nH]c4ccccc34)CC2)cn1 [21c]
- HDAC1-pIC50 [1]: 6.12
- HDAC2-pIC50 [2]: 6.12
- HDAC3-pIC50 [3]: 4.82

SMILES: Nc1cc(F)ccc1NC(=O)c1cnc(N2CCNCC2)cn1 [23a]
- HDAC1-pIC50 [1]: 5.48
- HDAC2-pIC50 [2]: 5.66
- HDAC3-pIC50 [3]: 6.40

SMILES: Cn1cc(CN2CCN(c3cnc(C(=O)Nc4cc(F)ccc4N)cn3)CC2)c2ccccc21 [23b]
- HDAC1-pIC50 [1]: 6.57
- HDAC2-pIC50 [2]: 6.30
- HDAC3-pIC50 [3]: 6.30

SMILES: Cn1cc(CCN2CCN(c3cnc(C(=O)Nc4cc(F)ccc4N)cn3)CC2)c2ccccc21 [23c]
- HDAC1-pIC50 [1]: 6.48
- HDAC2-pIC50 [2]: 5.86
- HDAC3-pIC50 [3]: 6.23

SMILES: Nc1cc(Cl)ccc1NC(=O)c1cnc(N2CCNCC2)cn1 [25a]
- HDAC3-pIC50 [3]: 5.06

SMILES: Nc1cc(F)c(F)cc1NC(=O)c1cnc(N2CCNCC2)cn1 [25b]
- HDAC1-pIC50 [1]: 5.37
- HDAC2-pIC50 [2]: 5.38
- HDAC3-pIC50 [3]: 5.80

SMILES: COc1ccc(NC(=O)c2cnc(N3CCNCC3)cn2)c(N)c1 [27c]
- HDAC1-pIC50 [1]: 4.7
- HDAC2-pIC50 [2]: 4.85
- HDAC3-pIC50 [3]: 4.85

SMILES: CN1CCN(c2cnc(C(=O)Nc3cc(-c4ccsc4)ccc3N)cn2)CC1 [29a]
- HDAC1-pIC50 [1]: 6.96
- HDAC2-pIC50 [2]: 6.74
- HDAC3-pIC50 [3]: 5.36

SMILES: Nc1ccc(-c2cccs2)cc1NC(=O)c1cnc(N2CCNCC2)cn1 [29b]
- HDAC1-pIC50 [1]: 7.15
- HDAC2-pIC50 [2]: 6.59
- HDAC3-pIC50 [3]: 5.21

SMILES: Nc1ccc(-c2ccc(F)cc2)cc1NC(=O)c1cnc(N2CCNCC2)cn1 [29c]
- HDAC1-pIC50 [1]: 6.80
- HDAC2-pIC50 [2]: 6.47
- HDAC3-pIC50 [3]: 5.17

SMILES: CN1CCN(c2cnc(C(=O)Nc3cc(-c4ccccc4F)ccc3N)cn2)CC1 [29d]
- HDAC1-pIC50 [1]: 6.74
- HDAC2-pIC50 [2]: 6.59
- HDAC3-pIC50 [3]: 4.92

SMILES: CN1CCN(c2ncc(C(=O)Nc3cc(-c4cccs4)ccc3N)cn2)CC1 [30a]
- IC50 ([4]; read-out: Experimental HDAC1 pIC50 (converted)): 324 nM
- IC50 [5]: 610 ± 20 nM
- inhibition at 1 µM ([6]; @1 µM): 8%
- inhibition at 10 µM ([6]; @10 µM): 38%

SMILES: CN1CCN(c2cnc(C(=O)Nc3cc(-c4cccs4)ccc3N)cn2)CC1 [30b]
- Experimental HDAC1 pIC50 [4]: 7.39
- IC50 ([4]; read-out: HDAC1 IC50): 40 ± 6 nM
- Experimental HDAC2 pIC50 [5]: 6.10
- IC50 [5]: 790 ± 20 nM
- HDAC3 % inhibition ([6]; @1 µM): 6%
- HDAC3 % inhibition ([6]; @10 µM): 35%

SMILES: CC(=O)N1CCN(c2cnc(C(=O)Nc3cc(-c4cccs4)ccc3N)cn2)CC1 [30c]
- Experimental HDAC1 pIC50 [4]: 7.72
- IC50 ([4]; read-out: HDAC1 IC50): 19 ± 1 nM
- Experimental HDAC2 pIC50 [5]: 5.96
- IC50 [5]: 1100 ± 100 nM
- HDAC3 % inhibition ([6]; @1 µM): 4%
- HDAC3 % inhibition ([6]; @10 µM): 30%

SMILES: CC(=O)N1CCN(c2cnc(C(=O)Nc3ccccc3N)cn2)CC1 [30d]
- Experimental HDAC1 pIC50 [4]: 5.72
- IC50 ([4]; read-out: HDAC1 IC50): 1900 ± 100 nM
- Experimental HDAC2 pIC50 [5]: 4.62
- IC50 [5]: 24000 ± 2000 nM
- HDAC3 % inhibition ([6]; @1 µM): 15%
- HDAC3 % inhibition ([6]; @10 µM): 72%

SMILES: Nc1cc(F)ccc1NC(=O)c1ccc(C(=O)NCc2ccccc2)cc1 [31a]
- inhibition at 1 µM [4]: 4%
- inhibition at 10 µM [4]: 31%
- inhibition at 1 µM [5]: 10%
- inhibition at 10 µM [5]: 37%
- inhibition at 1 µM ([6]; @1 µM): 21%
- inhibition at 10 µM ([6]; @10 µM): 65%

SMILES: Nc1cc(F)ccc1NC(=O)c1ccc(C(=O)NCc2ccncc2)cc1 [31b]
- inhibition at 1 µM [4]: 0%
- inhibition at 10 µM [4]: 27%
- inhibition at 1 µM [5]: 13%
- inhibition at 10 µM [5]: 30%
- inhibition at 1 µM ([6]; @1 µM): 19%
- inhibition at 10 µM ([6]; @10 µM): 59%

SMILES: Nc1cc(F)ccc1NC(=O)c1ccc(C(=O)NCc2cccnc2)cc1 [31c]
- inhibition at 1 µM [4]: 6%
- inhibition at 10 µM [4]: 36%
- inhibition at 1 µM [5]: 14%
- inhibition at 10 µM [5]: 51%
- inhibition at 1 µM ([6]; @1 µM): 25%
- inhibition at 10 µM ([6]; @10 µM): 66%
